Measurements as given in patent US9056840B2, “Coelenterazine analogues and coelenteramide analogues” (JNC Corporation, priority 2010, dated 2015).

What was measured:
[1] = target: T1, apoaequorin (Aequorea victoria, UniProt P07164); test: Luminescence patterns of semi-synthetic aequorins, half decay time; format: biochemical; conditions: semi-synthetic aequorin; time in which luminescence becomes half of maximum; patterns measured for 60 seconds
T1 construct: purchased Chisso Corporation
Description: A solution of the regenerated semi-synthetic aequorin was diluted to 10-fold with 20 mM Tris-HCl (pH 7.6) containing 0.1% BSA (manufactured by Sigma, Inc.), 0.01 mM EDTA and 150 mM NaCl. The dilution was dispensed into a 96-well microplate (Nunc #236108) at 5 μl/well. The luminescence reaction was triggered by injecting 50 mM Tris-HCl (pH 7.6) containing 50 mM calcium chloride solution at 100 μl/well. The luminescence patterns for 60 seconds were measured to determine half decay time of the luminescence (a time period in which the luminescence becomes half of the maximum luminescence intensity).

[2] = target: T1, apoaequorin; test: Luminescence spectra of semi-synthetic aequorins; format: biochemical; conditions: semi-synthetic aequorin, calcium added, 22 to 25° C.
Description: In a quartz cell with light path length of 10 mm, 1 ml of 50 mM Tris-HCl (pH 7.6) containing 1 mM EDTA and 100 μl (100 μg protein) of a solution of the regenerated semi-synthetic aequorin were charged. Next, 100 μl of 50 mM Tris-HCl (pH 7.6) containing 0.1 ml of 10 mM calcium chloride solution was added thereto to start the luminescence reaction. The spectra were measured on a spectrofluorimeter (FP-6500, manufactured by Jasco Co., Ltd.) with the excitation light source turned off. The measurement conditions were bandwidth: 20 nm, response: 0.5 second, scan speed: 2000 nm/min and 22 to 25° C. The luminescence spectra measured were corrected.

[3] = target: T1, apoaequorin; test: Fluorescence spectra of fluorescent proteins formed from semi-synthetic aequorins by Ca2+; format: physicochemical; conditions: fluorescent protein generated by calcium from semi-synthetic aequorin; excitation 330 nm, 25° C.
Description: The fluorescence spectra of novel fluorescent proteins formed by the Ca^2+-triggerd reaction from semi-synthetic aequorins in EXAMPLE 3 were measured at 25° C. in a quartz cell (10 mm light path length) using a Jasco FP-6500 spectrofluorometer (excitation wavelength: 330 nm, emission/excitation bandwidth: 3 nm; response: 0.5 sec, scan speed, 1000 nm/min). The fluorescence spectra measured were corrected.

[4] = target: T2, 19 kDa protein from Oplophorus luciferase (Oplophorus gracilirostris, UniProt Q9GV45); test: Substrate specificity and luminescence activity of the 19 kDa protein from Oplophorus luciferase; format: biochemical; conditions: measured for 60 seconds, coelenterazine = 100
T2 construct: made in house
T2 sequence (Q9GV45 28-196): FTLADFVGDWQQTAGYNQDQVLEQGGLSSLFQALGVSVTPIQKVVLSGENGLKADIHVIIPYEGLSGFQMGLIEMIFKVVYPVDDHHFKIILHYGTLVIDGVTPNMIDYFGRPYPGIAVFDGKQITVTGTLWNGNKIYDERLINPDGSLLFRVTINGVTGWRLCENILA
Description: The 19 kDa protein from Oplophorus luciferase was purified by the method described in Inouye, S. and Sasaki, S., Protein Express. Purif. (2007) 56: 261-268 and provided for use.
(§1) After 1 μl of the 19 kDa protein (2.3 mg/ml) from Oplophorus luciferase containing 1 mM DTT was dissolved in 100 μl of 30 mM Tris-HCl (pH 7.6) containing 10 mM EDTA, 1 μl of a solution of coelenterazine or its analogue (1 μg/μl) in ethanol was added to the solution to start the luminescence reaction, and the luminescence activity was measured for 60 seconds on a luminometer luminescencer-PSN AB2200 (manufactured by Atto Co., Ltd.). The luminescence activity was determined by repeating the measurement described above 3 times and expressed in terms of the maximum luminescence intensity (Imax) of luminescence activity.

[5] = tested on: Gaussia luciferase; test: Substrate specificity and luminescence activity of Gaussia luciferase; format: biochemical; conditions: measured for 10 seconds, coelenterazine = 100
Description: Gaussia luciferase was purified by the method described in Japanese Patent Application KOKAI No. 2008-099669 and provided for use. After 1 μl of Gaussia luciferase (0.024 mg/ml) was dissolved in 100 μl of phosphate buffered saline (manufactured by Sigma Inc.) containing 0.01% Tween 20 (manufactured by Sigma Inc.) and 10 mM EDTA, 1 μl of a solution of coelenterazine or its analogue (1 μg/μl) in ethanol was mixed with the solution to start the luminescence reaction. The luminescence activity was measured for 10 seconds on a luminometer luminescencer-PSN AB2200 (manufactured by Atto Co., Ltd.). The luminescence activity was determined by repeating the measurement described above 3 times and expressed in terms of the maximum luminescence intensity (Imax) of luminescence activity.

[6] = target: T3, Renilla luciferase (Renilla reniformis, UniProt P27652); test: Substrate specificity and luminescence activity of Renilla luciferase; format: biochemical; conditions: measured for 10 seconds, coelenterazine = 100
T3 construct: made in house
T3 sequence (P27652 1-311): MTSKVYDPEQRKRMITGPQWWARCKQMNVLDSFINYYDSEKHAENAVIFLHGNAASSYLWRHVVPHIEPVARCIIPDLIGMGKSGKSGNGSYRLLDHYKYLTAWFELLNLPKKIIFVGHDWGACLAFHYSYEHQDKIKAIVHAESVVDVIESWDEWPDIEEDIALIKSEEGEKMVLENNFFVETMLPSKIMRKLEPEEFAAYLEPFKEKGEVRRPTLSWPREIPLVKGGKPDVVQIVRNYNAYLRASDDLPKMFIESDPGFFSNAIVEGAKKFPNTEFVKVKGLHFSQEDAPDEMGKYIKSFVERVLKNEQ
Description: Renilla luciferase was purified by the method described in Inouye, S. & Shimomura, O. Biochem. Biophys. Res. Commun. (1997) 233: 349-353, and used for assay.
as §1, with “Renilla luciferase (0.45” for “the 19 kDa protein (2.3”, “mg/ml)” for “mg/ml) from Oplophorus luciferase containing 1 mM DTT”, “reaction. The” for “reaction, and the”, “10” for “60”, “measurement of luminescence activity” for “measurement”

[7] = Fluorescence spectra of coelenteramide analogue alone (absence of apoaequorin); format: physicochemical; conditions: analogue alone 8 μg/ml
Description: (§2) The fluorescence spectra were determined as follows. For coelenteramide analogue alone, the fluorescence was measured according to the procedures for semi-synthetic gFP and semi-synthetic BFP described in EXAMPLES 11 and 12, except for in the absence of apoaequorin, using 1 ml of 50 mM Tris-HCl (pH 7.6) containing 10 mM EDTA and 1 mM DTT or 1 ml of 50 mM Tris-HCl (pH 7.6) containing 10 mM CaCl2 and 1 mM DTT, in the final concentration of coelenteramide analogue adjusted to 8 μg/ml. The fluorescence spectra were measured at 25° C. in a quartz cell (10 mm light path length) using a Jasco FP-6500 spectrofluorometer (excitation wavelength: 337 nm, emission/excitation bandwidth: 3 nm; response: 0.5 sec, scan speed, 1000 nm/min).

[8] = target: T1, apoaequorin; test: Fluorescence spectra of semi-synthetic gFP (coelenteramide analogue + apoaequorin, EDTA); format: physicochemical; conditions: 10 mM EDTA buffer, excitation 337 nm
Description: Semi-synthetic gFP was prepared from recombinant apoaequorin and coelenteramide analogues as follows. In 1 ml of 50 mM Tris-HC 1 (pH 7.6) containing 10 mM EDTA and 1 mM DTT, apoaequorin (0.2 mg) was mixed with 8 μl of a coelenteramide analogue (1 μg/μl in anhydrous methanol). The mixture was allowed to stand 4° C. for 16 hours to prepare semi-synthetic gFP-like protein (hereinafter sometimes simply referred to as “semi-synthetic gFP”).
as §2

[9] = target: T1, apoaequorin; test: Fluorescence spectra of semi-synthetic BFP (coelenteramide analogue + apoaequorin, CaCl2); format: physicochemical; conditions: 10 mM CaCl2 buffer, excitation 337 nm
Description: Semi-synthetic gFP was prepared from recombinant apoaequorin and coelenteramide analogues as follows. In 1 ml of 50 mM Tris-HC 1 (pH 7.6) containing 10 mM CaCl2 and 1 mM DTT, apoaequorin (0.2 mg) was mixed with 8 μl of a coelenteramide analogue (1 μg/μl in anhydrous methanol). The mixture was allowed to stand at 4° C. for 16 hours to prepare semi-synthetic BFP-like protein (hereinafter sometimes simply referred to as “semi-synthetic BFP”).
as §2

[10] = 10 mM CaCl2 buffer pH 7.6, excitation 337 nm
[11] = 10 mM EDTA buffer pH 7.6, excitation 337 nm

T1 sequence (P07164 other isoform, or with tags, fused parts or gaps with the stated changes): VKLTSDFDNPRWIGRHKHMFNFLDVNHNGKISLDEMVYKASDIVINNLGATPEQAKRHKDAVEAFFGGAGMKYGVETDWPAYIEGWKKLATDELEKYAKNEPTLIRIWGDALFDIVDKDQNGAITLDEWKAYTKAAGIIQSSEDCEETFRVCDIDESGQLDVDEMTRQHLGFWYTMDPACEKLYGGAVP

| SMILES | Half decay time [1] | Maximum luminescence wavelength λmax (nm) [2] | Maximum fluorescence wavelength λmax (nm) [3] | Relative fluorescence intensity (rlu) [3] | Luminescence activity Imax (%) [4] | Luminescence activity Imax (%) [5] | Luminescence activity Imax (%) [6] | Coelenteramide (Buffer containing CaCl2) Fluorescence intensity (rlu) [7, 10] | Coelenteramide (Buffer containing CaCl2) Maximum fluorescence wavelength λmax (nm) [7, 10] | Coelenteramide (EDTA-containing buffer) Fluorescence intensity (rlu) [7, 11] | Coelenteramide (EDTA-containing buffer) Maximum fluorescence wavelength λmax (nm) [7, 11] | Semi-synthetic gFP (EDTA-containing buffer) Fluorescence intensity (rlu) [8] | Semi-synthetic gFP (EDTA-containing buffer) Maximum fluorescence wavelength λmax (nm) [8] | Fluorescence intensity [9] | Semi-synthetic BFP (Buffer containing CaCl2) Maximum fluorescence wavelength λmax (nm) [9] |
| --- | --- | --- | --- | --- | --- | --- | --- | --- | --- | --- | --- | --- | --- | --- | --- |
| Oc1ccc(Cc2nc3c(Cc4ccccc4)nc(-c4ccc(O)cc4)cn3c2O)cc1 [Coelenterazine] | 0.81 s | 472.5 nm | 473.0 nm | 63.3 rlu | 100.0% | 100.0% | 100.0% | – | – | – | – | – | – | – | – |
| O=c1c(Cc2ccc(O)cc2)nc2c(-c3ccsc3)[nH]c(-c3ccc(O)cc3)cn1-2 [Compound 3g, 2-(4-Hydroxybenzyl)-6-(4-hydroxyphenyl)-8-(thiophen-3-yl)imidazo[1,2-a]pyrazin-3(7H)-one] | – | – | – | – | 0.3% | 0.00% | 0.00% | – | – | – | – | – | – | – | – |
| O=c1c(Cc2ccc(O)cc2)nc2c(-c3csc4ccccc34)[nH]c(-c3ccc(O)cc3)cn1-2 [Compound 3i, 8-(Benzo[b]thiophen-3-yl)-2-(4-hydroxybenzyl)-6-(4-hydroxyphenyl)imidazo[1,2-a]pyrazin-3(7H)-one] | – | – | – | – | 0.09% | 0.00% | 0.00% | – | – | – | – | – | – | – | – |
| O=C(Nc1ncc(-c2ccc(O)cc2)nc1Cc1ccccc1)c1cccc2cc(O)ccc12 [Compound 4z, N-[3-Benzyl-5-(4-hydroxyphenyl)pyrazin-2-yl]-6-hydroxy-1-naphthamide] | – | – | – | – | – | – | – | 13.2 rlu | 410.5 nm | 20.2 rlu | 409.5 nm | 246.3 rlu | 492.5 nm | 24.6 rlu | 487.0 nm |
